{"source": "patent US20050069541A1", "about": "“Composition for and treatment of demyelinating diseases and paralysis by administration of remyelinating agents” (priority 2003, published 2005)", "key": {"[1]": {"system": "IL-2, IL-10, MCP-1 RNA", "assay": "Chronic EAE: quantitative RT-PCR of spinal cord", "assay_type": "in vivo, guinea pig", "method": "Quantitative Reverse Transcription-PCR: IL-2, IL-10, MCP-1. RNA was isolated from 30 mg of frozen guinea pig spinal cord using the S.N.A.P.™ (simple nucleic acid preparation) total RNA Isolation Kit (Invitrogen) according to manufacturer's instructions, modified to include a second DNAse treatment step followed by an additional purification over the S.N.A.P. column.\nPrimer/probe sequences and concentrations for IL-2, IL-10, and MCP-1 are given in Table 7, as well as the standard RNA used for each gene. RT-PCR was carried out in triplicate using the ABI PRISM® 7700 Sequence Detection System. 50 μl reactions contained 10 to 800 ng of total RNA and primers and probes at the concentrations indicated above in reaction buffer consisting of 6.67% glycerol (Amresco); 5.5 mM MgCl; 300 μM DATP, dCTP, dGTP, and dUTP; 100 nM probe; 1.25 unit of AmpliTaq Gold® DNA Polymerase (Applied Biosystems); 1× TaqMan® Buffer A (TaqMan® PCR Core reagents kit, Applied Biosystems), 20 units of RNase Inhibitor (Roche); 1.25 unit of murine leukemia virus (MuLV) Reverse Transcriptase (Applied Biosystems). Reverse-transcription of RNA was carried out at 48° C. for 30 min., followed by a 10 min. denaturing step at 95° C. PCR was carried out by 40 thermo-cycles consisting of 95° C. for 15 seconds followed by 60° C. for 1 minute. Each plate included a standard curve using the standard RNA listed in Table 7 and two additional control samples: 1) a positive control RNA sample used on all plates, 2) a non-template control (NTC).\nThe correlation coefficients of the standard curves were greater than 0.990 for all data shown. The coefficients of variation for sample triplicates were less than 0.2. Since the RNA used for the standard curve is a heterogeneous mix of RNA containing a constant but unknown amount of the target message, the numbers calculated are relative."}, "[2]": {"system": "guinea pig model of CP-EAE", "assay": "Remyelination and motor function in guinea pig CP-EAE", "assay_type": "in vivo", "source_text": "The number of lesions showing myelin pallor was divided by the total number of lesions within cross sections of spinal cord taken throughout its length from each animal (FIG. 10) (for the method see Warrington et al., 2000, Proc. Nat'l Acad. Sci. USA 97: 6820-5). […] In contrast, after 20 days of N-[N-(3-pyridinesulfonyl)-L-3,3-dimethyl-4-thiaprolyl]-O-[1-methylpiperazin-4-ylcarbonyl]-L-tyrosine isopropyl ester administration, the frequency of shadow plaques in the spinal cord was increased over saline-treated animals, reaching 68%; after 30 and 40 days, the incidence was 77% and 87%, respectively (p<0.001, 2-way ANOVA with Tukey test).\nThe overall degree of plaque remyelination in the spinal cord was also measured. […] Total lesion area was determined for each animal by tracing all lesions within all spinal cord sections and summing the areas. Likewise, the total area of remyelination was measured by tracing regions of myelin pallor. FIGS. 10C-F plot the total lesion area against the percentage of remyelination. In saline-treated animals, lesions rarely show any evidence of repair, with means ranging between 2 and 11%, and there were no significant differences over the 40-day treatment period (FIGS. 10C-F). In contrast, after 20, 30 or 40 days of N-[N-(3-pyridinesulfonyl)-L-3,3-dimethyl-4-thiaprolyl]-O-[1-methylpiperazin-4-ylcarbonyl]-L-tyrosine isopropyl ester treatment, the majority of lesions identified show a variable degree of remyelination ranged from 2 to 100% in the majority of lesions (mean area of remyelination approximately 50%) (FIGS. 10D-5). (p<0.001, 2-way ANOVA with Tukey test). Therefore while lesions were evident in all animals throughout the 40-day treatment period, N-[N-(3-pyridinesulfonyl)-L-3,3-dimethyl-4-thiaprolyl]-O-[1-methylpiperazin-4-ylcarbonyl]-L-tyrosine isopropyl ester increased the incidence and percentage of remyelination. Furthermore, evidence of remyelination in N-[N-(3-pyridinesulfonyl)-L-3,3-dimethyl-4-thiaprolyl]-O-[1-methylpiperazin-4-ylcarbonyl]-L-tyrosine isopropyl ester-treated animals is consistent with an observed regain of motor function. The starting point for treatment was a clinical score of 2, which denotes full bilateral hind limb paralysis. […] Functional recovery was never observed in control animals."}}, "note": "“Also recorded” adds a separate entry of the source."}
{"compound": "CC(C)OC(=O)[C@H](Cc1ccc(OC(=O)N2CCN(C)CC2)cc1)NC(=O)[C@H]1N(S(=O)(=O)c2cccnc2)CSC1(C)C", "note": "[N-[N-(3-pyridinesulfonyl)-L-3,3-dimethyl-4-thiaprolyl]-O-[1-methylpiperazin-4-ylcarbonyl]-L-tyrosine isopropyl ester]", "values": [{"measurement": "cytokine RNA after withdrawal of compound", "setting": "[1]; 10 days after withdrawal", "value": "returned to levels comparable to saline-treated animals"}, {"measurement": "IL-2 RNA in spinal cord during treatment", "setting": "[1]; lumbar spinal cord", "value": "almost no detectable IL-2 RNA"}, {"measurement": "inflammatory cytokine RNA (IL-2, IL-10, MCP-1) during treatment", "setting": "[1]; lumbar spinal cord, versus saline", "value": "significant reduction; also recorded: marked decrease"}, {"measurement": "mean area of remyelination", "setting": "[2]; after 20, 30 or 40 days of treatment", "value": "approximately 50%"}, {"measurement": "percentage of plaques exhibiting evidence of remyelination (frequency of shadow plaques in the spinal cord)", "setting": "[2]; after 20 days of administration", "value": 68, "unit": "%"}, {"measurement": "percentage of plaques exhibiting evidence of remyelination (incidence)", "setting": "[2]; after 30 days", "value": 77, "unit": "%"}, {"measurement": "percentage of plaques exhibiting evidence of remyelination (incidence)", "setting": "[2]; after 40 days", "value": 87, "unit": "%"}, {"measurement": "treated animals in which paralysis was reversed to a clinical score of 1", "setting": "[2]; treatment started at clinical score of 2", "value": 50, "unit": "%"}]}
